For test [1], the system named is phosphorylated eIF2α and CHOP in A2780 cells. Description: Immunoblotting analysis, unfolded protein response. Format: cell-based, human. The note with it: 72 hours. On the procedure:
This finding led to the investigation of the possibility that 4 may induce endoplasmic reticulum (ER) stress. Co-administration of 4 and salubrinal (10 μM), a known ER stress inhibitor, reduced the cytotoxicity of 4 in A2780 cells. […] To further validate the ER as the main target for 4, the expression of proteins related to the unfolded protein response (UPR) was monitored. […] ER membrane expansion is widely associated with ER stress. With this fact in mind the ER size of A2780 cells upon incubation with 4 were examined using fluorescence microscopy. Relative to untreated controls (FIG. 3B), cells exposed to 4 (10 μM) for 4 h had 25.1% larger ER coverage (FIG. 3C). The ER size relative to the whole cell of the untreated controls was about 30% and the ER size relative to the whole cell of the treated samples was about 55%.
A2780 cells (5×10^5 cells) were incubated with the osmium complexes (concentrations, μM) for 72 h at 37° C. Cells were washed with PBS, scraped into SDS-PAGE loading buffer (64 mM Tris-HCl (pH6.8)/9.6% glycerol/2% SDS/5% β-mercaptoethanol/0.01% Bromophenol Blue), and incubated at 95° C. for 10 min. […] After incubation with horseradish peroxidase-conjugated secondary antibodies (Cell Signalling Technology), immune complexes were detected with the ECL detection reagent (BioRad) and analyzed using an Alpha Innotech ChemiImager™ 5500 fitted with a chemiluminescence filter.

Test [2] relates to p53, p21 and BAX in A2780 cells. Description: Immunoblotting analysis, p53 pathway. The note with it: for p53 expression: vs untreated cells. Format: cell-based, human. On the procedure: Having established the intracellular targets of 2 and 4, the role of p53, a cell cycle and apoptosis regulator, in the cellular responses evoked was investigated. […] Therefore, p53 played a fundamental role in coordinating the cellular response to 2-induced DNA damage. […] (FIG. 13). […] To relate p53 to potency, cytotoxicity studies were conducted in the presence of p53 inhibitors pifithrin-α and pifithrin-μ. (both 10 μM). […] The IC50 values of compound 2 in the absence and presence of p53 inhibitor pifithrin-μ after 72 hours incubation was about 2 μM and about 30 μM, respectively.
A2780 cells (5×10^5 cells) were incubated with the osmium complexes (concentrations, μM) for 72 h at 37° C. Cells were washed with PBS, scraped into SDS-PAGE loading buffer (64 mM Tris-HCl (pH6.8)/9.6% glycerol/2% SDS/5% β-mercaptoethanol/0.01% Bromophenol Blue), and incubated at 95° C. for 10 min. Whole cell lysates were resolved by 4-20% sodium dodecylsulphate polyacylamide gel electrophoresis (SDS-PAGE; 200 V for 25 min) followed by electro transfer to polyvinylidene difluoride membrane, PVDF (350 mA for 1 h). Membranes were blocked in 5% (w/v) non-fat milk in PBST (PBS/0.1% Tween 20) and incubated with the appropriate primary antibodies (Cell Signalling Technology and Santa Cruz). After incubation with horseradish peroxidase-conjugated secondary antibodies (Cell Signalling Technology), immune complexes were detected with the ECL detection reagent (BioRad) and analyzed using an Alpha Innotech ChemiImager™ 5500 fitted with a chemiluminescence filter.
Background: In western blotting, separated proteins are transferred to a membrane and probed.

The test system of test [3] is Eμ-Mycp19arf−/− lymphoma cells. Description: RNAi signatures, GFP competition assay. To be noted: for shChk2 log 2(RI) value / shp53 log 2(RI) value: LD80-90 concentration; for RNAi signature classification against reference set: probabilistic K-nearest neighbors.
Excerpt: This RNAi-based methodology relied on a fluorescence competition assay involving lymphoma cells that were partially infected with one of eight distinct short hairpin RNAs (shRNAs). shRNA-bearing cells will either enrich or deplete relative to the uninfected population based on drug survival advantage or disadvantage conferred by a given shRNA. […] The signature of a novel compound was compared to those of a reference set of drugs using a probabilistic K-nearest neighbors algorithm to determine whether it belonged to a class in the reference set or a new category that was not represented in the reference set.
Compounds were dosed to achieve an LD80-90 in Eμ-Myc^p19arf−/− cells by propidium iodide exclusion as determined by FACS after a 48 h incubation. GFP enrichment/depletion was then determined by FACS at 72 h. […] All FACS was conducted using a FACScan (BD Biosciences).
Eμ-Myc^p19arf−/− lymphoma or p185+ BCR-Abl^p19arf−/− leukemia cells were infected with GFP-tagged shRNAs such that 15-25% of the population were GFP positive. An eighth of a million cells in 250 μL B-cell media (BCM) were then seeded into 24-well plates. For wells that would remain untreated as a control, only 1/16th of a million cells were seeded. Next, 250 μL of media containing the active agent was added to the cells. After 24 h, 300 μL of cells from untreated wells are removed and replaced by 300 μL fresh BCM. All wells then received 500 μL BCM before being placed by in the incubator for another 24 h. At 48 h, cells transduced with the control vector, MLS, were checked for viability via FACS on a FACScan (BD Biosciences) using propidium iodide as a live/dead marker. Untreated wells then had 700 μL of cells removed and replaced with 700 μL fresh media followed by a further 1 mL of fresh media. […] Finally, at 72 h, all wells for which an LD80-90 was achieved, as well as the untreated samples, were analyzed via FACS to determine GFP % enrichment.
Test [4] concerns A2780/CP70 (ovarian). The test can be described thus: Cytotoxicity MTT assay. Format: cell-based, human. To be noted: 72 h, cisplatin-resistant. On the procedure: (§1) The anti-proliferative properties of 1-4 against a panel of human cancer cell lines were assessed by the MTT [3-(4,5-dimethylthiazol-2-yl)-2,5-diphenyltetrazolium bromide] assay. Cisplatin was included as a control. The IC50 values, concentrations required to induce 50% viability, were derived from dose-response curves and are summarized in Table 1.
(§2) A549 lung adenocarcinoma, HeLa cervical cancer, and MRC5 normal human fetal lung fibroblast cell lines were maintained in Dulbecco's Modified Eagle's Medium (DMEM-low glucose) supplemented with 10% fetal bovine serum and 1% penicillin/streptomycin. The cisplatin-sensitive A2780 ovarian cancer and the cisplatin-resistant A2780/CP70 ovarian cancer cell lines were cultured in RPMI (glutamine free) media supplemented with 10% fetal bovine serum and 1% penicillin/streptomycin. All cells were grown at 310 K in a humidified atmosphere containing 5% CO2.
(§3) The colorimetric MTT assay was used to determine the toxicity of the osmium complexes and cisplatin. Cells (2×10^3) were seeded in each well of a 96-well plate. After incubating the cells overnight, various concentrations of test compound (0.3-100 μM) were added and incubated for 72 h (total volume 200 μL). The test compounds were prepared as 10 mM solutions in DMSO and diluted using media. The final concentration of DMSO in each well was 0.5% and this amount was present in the untreated control as well. Cisplatin was prepared as a 5 mM solution in PBS and diluted further using media. After 72 h, the medium was removed, 200 μL of a 0.4 mg/mL solution of MTT in DMEM or RPMI was added, and the plate was incubated for an additional 1-2 h. The DMEM/MTT or RPMI/MTT mixture was aspirated and 200 μL of DMSO was added to dissolve the resulting purple formazan crystals. The absorbance of the solution wells was read at 550 nm. Absorbance values were normalized to DMSO-containing control wells and plotted as concentration of test compound versus % cell viability. IC50 values were interpolated from the resulting dose dependent curves. The reported IC50 values are the average from at least three independent experiments, each of which consisted of six replicates per concentration level.
In general terms: Tetrazolium assays rely on reduction of a dye to a coloured formazan, in cell work by metabolically active cells.

Test [5] deals with A549 (lung). The test can be described thus: Cytotoxicity MTT assay. Format: cell-based, human. To be noted: 72 h. On the procedure: as §1, §2, §3
Test [6] has as its system MRC-5 (lung normal). The test can be described thus: Cytotoxicity MTT assay. To be noted: 72 h. The test is classed as cell-based, human. On the procedure: as §1, §2, §3
The test system of test [7] is A2780 (ovarian). Description: Cytotoxicity MTT assay. Format: cell-based, human. To be noted: for IC50: MTT, 72 h. On the procedure:
as §1, §2, §3

The subject of test [8] is HeLa (cervical). The test can be described thus: Cytotoxicity MTT assay. Format: cell-based, human. To be noted: 72 h. On the procedure:
as §1, §2, §3

Molecules are shown by their SMILES.

The IC50 is the concentration at which inhibition is half-maximal. Lower therefore signals higher potency. Turning to `[N]#[Os]1([Cl])([Cl])([Cl])[N]2C=CC=c3ccc4c(c32)[N]1C=CC=4` [Complex 2, OsN(1,10-phenanthroline)Cl3], the “phosphorylated eIF2α and CHOP expression” value in test [1] is recorded as “little effect”. Besides, the “p21 and BAX expression” value in test [2] was “dose-dependent increase”. In addition, the p53 expression result in test [2] is recorded as “higher p53 expression”. The “shChk2 log 2(RI) value” in test [3] is listed as 2.6. Moreover, in test [3], the “shp53 log 2(RI) value” was found to be 2.7. Also, the “RNAi signature classification against reference set” value in test [3] was “represented novel mechanisms of drug action”. Moreover, the IC50 in test [4] amounted to 2.96 ± 0.23 µM; in test [5], 7.86 ± 1.41 µM; in test [6], 16.6 ± 3.61 µM; in test [7], 1.99 ± 0.23 µM; in test [8] it was 6.95 ± 0.53 µM. Further, the “higher potency for A2780 than for normal lung fibroblast MRC5” value in test [7] (A2780 vs MRC5) is listed as 8 fold.
Take `[N]#[Os]1([Cl])([Cl])([Cl])[N]2C=CC(c3ccccc3)=c3ccc4c(c32)[N]1C=CC=4c1ccccc1` [Complex 4, OsN(4,7-diphenyl-1,10-phenanthroline)Cl3]: the “phosphorylated eIF2α and CHOP expression” value in test [1] is “upregulated”. Moreover, the “p21 and BAX expression” value in test [2] was “remained fairly constant”. Moreover, the p53 expression entry in test [2] was “did not increase markedly”. For the same molecule, the “shChk2 log 2(RI) value” in test [3] was 0.73. Further, the “shp53 log 2(RI) value” in test [3] is reported as 1.32. For the same molecule, the “RNAi signature classification against reference set” value in test [3] is on record as “represented novel mechanisms of drug action”. The IC50 in test [4] was 3.4 ± 0.28 µM; in test [5] it was 1.97 ± 0.02 µM; in test [6] it was 8.45 ± 1.21 µM; in test [7], 3.36 ± 0.09 µM; in test [8], 2.86 ± 0.51 µM.

The values are drawn from patent publication US10662210B2, “Compositions and methods comprising osmium for the treatment of cancers” (Massachusetts Institute of Technology, priority 2014, dated 2020).
